Columns and labels:
Water solubility test = assay type: physicochemical; conditions: for Solubility (%): purified water, from amount of water required for dissolution
Procedure: Experiment 2 (Water Solubility Test) Testing Method
Each sample compound was weighed in the amount shown in Table 3, to which purified water was added in 0.05 mL aliquots. The solubility (%) of the compound was determined based on the amount of water required for its dissolution.

Compound | Solubility (%) (Water solubility test) | melting point [°C] | Dissolution in the added water (in words) (Water solubility test; 100 mL purified water added)
COc1ccc(-c2cc(CN3CCN(Cc4ccccc4)CC3)c(=O)n(CC3CC3)n2)cc1F.Cl.Cl [Example 18, 4-(4-benzyl-1-piperazinyl)methyl-2-cyclopropylmethyl-6-(3-fluoro-4-methoxyphenyl)-2H-pyridazin-3-one dihydrochloride] | 1 |  | 
Cc1ccc(-c2cc(CN(C)C)c(=O)n(CC(C)C)n2)cc1.Cl [Example 45, 4-dimethylaminomethyl-2-isobutyl-6-(4-methylphenyl)-2H-pyridazin-3-one hydrochloride] | 4 |  | 
CCN(CC)Cc1cc(-c2ccc(C)cc2)nn(CC(C)C)c1=O.Cl [Example 47, 4-diethylaminomethyl-2-isobutyl-6-(4-methylphenyl)-2H-pyridazin-3-one hydrochloride] | >20 |  | 
Cc1cc(-c2cc(CN(C)C)c(=O)n(CC(C)C)n2)ccc1F.Cl [Example 89, 4-dimethylaminomethyl-6-(4-fluoro-3-methylphenyl)-2-isobutyl-2H-pyridazin-3-one hydrochloride] | >20 |  | 
COc1ccc(-c2cc(CN)c(=O)n(Cc3ccc(F)cc3)n2)cc1F.Cl [Example 195, 4-aminomethyl-2-(4-fluorobenzyl)-6-(3-fluoro-4-methoxyphenyl)-2H-pyridazin-3-one hydrochloride] | 0.2 |  | 
Cc1cc(-c2cc(CN3CCN(C)CC3)c(=O)n(Cc3ccccc3Cl)n2)ccc1F [Example 224, 2-(2-chlorobenzyl)-6-(4-fluoro-3-methylphenyl)-4-(4-methyl-1-piperazinyl)methyl-2H-pyridazin-3-one] |  | 149.7 to 150.9 | 
Cc1cc(-c2cc(CCCN)c(=O)n(Cc3ccccc3Cl)n2)ccc1F [Example 227, 4-(3-aminopropyl)-2-(2-chlorobenzyl)-6-(4-fluoro-3-methylphenyl)-2H-pyridazin-3-one] |  | 80 to 85 | 
Cc1cc(-c2cc(CN)c(=O)n(Cc3ccccc3Cl)n2)ccc1F [Example 237, 4-aminomethyl-2-(2-chlorobenzyl)-6-(4-fluoro-3-methylphenyl)-2H-pyridazin-3-one] |  | 97.6 to 102.2 | 
COc1ccc(-c2cc(CCCN3CCN(C)CC3)c(=O)n(Cc3ccc(F)cc3)n2)cc1F [Example 239, 2-(4-fluorobenzyl)-6-(3-fluoro-4-methoxyphenyl)-4-[3-(4-methyl-1-piperazinyl)propyl]-2H-pyridazin-3-one] |  | 108 to 109 | 
CCOC(=O)Nc1cc(-c2ccc(OC)cc2)nn(C/C=C/c2ccc(Cl)cc2)c1=O [compound 1, reference compound] | <0.001 |  | (insoluble)

Now from value to molecule:

Solubility (%) (Water solubility test) | melting point [°C] | Dissolution in the added water (in words) (Water solubility test; 100 mL purified water added) | Compound
>20 |  |  | COc1ccc(-c2cc(CN3CCNCC3)c(=O)n(CC3CC3)n2)cc1F.Cl.Cl [Example 21, 2-cyclopropylmethyl-6-(3-fluoro-4-methoxyphenyl)-4-(1-piperazinyl)methyl-2H-pyridazin-3-one dihydrochloride]
0.08 |  |  | COc1ccc(-c2cc(CN)c(=O)n(CC3CCCC3)n2)cc1F.Cl [Example 188, 4-aminomethyl-2-cyclopentylmethyl-6-(3-fluoro-4-methoxyphenyl)-2H-pyridazin-3-one hydrochloride]
0.06 |  |  | COc1ccc(-c2cc(CN)c(=O)n(Cc3ccc(Cl)cc3)n2)cc1F.Cl [Example 206, 4-aminomethyl-2-(4-chlorobenzyl)-6-(3-fluoro-4-methoxyphenyl)-2H-pyridazin-3-one hydrochloride]
10 |  |  | COc1ccc(-c2cc(CCCN3CCNCC3)c(=O)n(CC3CC3)n2)cc1F.Cl.Cl [Example 214, 2-cyclopropylmethyl-6-(3-fluoro-4-methoxyphenyl)-4-[3-(1-piperazinyl)propyl]-2H-pyridazin-3-one dihydrochloride]
10 |  |  | COc1ccc(-c2cc(CCCN)c(=O)n(CC3CC3)n2)cc1F.Cl [Example 217, 4-(3-aminopropyl)-2-cyclopropylmethyl-6-(3-fluoro-4-methoxyphenyl)-2H-pyridazin-3-one hydrochloride]
